Assay results reported in US8431593B2, “Heteroaryl amide derivatives” (H. Lundbeck A/S, priority 2006, dated 2013).
pIC50: −log10 of the molar value. Read-outs that look alike come from different tables or passages of the source.

Target: T1, P2X7 receptor (Homo sapiens, UniProt Q99572)
T1 construct: host or cells: SH-SY5Y
T1 sequence (Q99572 1-595): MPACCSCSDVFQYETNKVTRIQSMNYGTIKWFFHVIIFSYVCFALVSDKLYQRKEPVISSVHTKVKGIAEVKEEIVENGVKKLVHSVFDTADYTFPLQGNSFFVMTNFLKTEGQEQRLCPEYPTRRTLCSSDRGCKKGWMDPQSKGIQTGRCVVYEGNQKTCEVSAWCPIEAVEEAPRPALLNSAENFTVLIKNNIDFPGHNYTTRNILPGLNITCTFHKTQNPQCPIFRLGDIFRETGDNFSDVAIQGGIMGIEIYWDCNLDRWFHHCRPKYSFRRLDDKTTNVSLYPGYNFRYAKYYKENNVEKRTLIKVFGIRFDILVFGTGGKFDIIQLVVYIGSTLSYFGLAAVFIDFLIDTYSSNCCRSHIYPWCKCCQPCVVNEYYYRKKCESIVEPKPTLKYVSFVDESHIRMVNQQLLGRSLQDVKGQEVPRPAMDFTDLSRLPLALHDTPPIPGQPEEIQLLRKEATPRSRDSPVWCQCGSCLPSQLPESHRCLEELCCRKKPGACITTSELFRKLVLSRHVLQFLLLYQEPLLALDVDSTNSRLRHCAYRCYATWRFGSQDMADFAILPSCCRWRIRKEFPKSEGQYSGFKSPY
Assay: P2X7 calcium mobilization assay, high throughput, antagonist activity (Example 4A)
Format: cell-based
Conditions: read-out: IC50
In short: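 100,000 cells/well, plated day -1. Dye 1 h → rinse → compound 1 h, RT → FLIPR^TETRA Ca2+ mobilization. Max RFU minus mean negative control (no agonist); mean agonist-well max as positive control.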

[1] = 50% decrease in the fluorescence response of cells exposed to 80 μM of 2′(3′)-O-(4-benzoyl-benzoyl)adenosine 5′-triphosphate, determined as in Example 4A
[2] = P2X7 calcium mobilization, Example 4A, 50% decrease in the fluorescence response of cells exposed to 80 μM of (2′(3′)-O-(4-benzoyl-benzoyl)adenosine 5′-triphosephate)

Compound | pIC50 [1] | pIC50 [2]
CC(C)CC(CNC(=O)c1cccc2nc(CC(Cc3ccccc3)C(=O)O)cn12)c1ccc(C(F)(F)F)cc1 (centres unmarked) [Compound 1008, 2-benzyl-3-[5-({4-methyl-2-[4-(trifluoromethyl)phenyl]pentyl}carbamoyl)imidazo[1,2-a]pyridin-2-yl] propanoic acid] | > 5.70 | –
CCOC(=O)C(CC1CC1)c1cn2c(C(=O)NCC3(c4ccc(Cl)cc4)CCCCC3)cccc2n1 (centres unmarked) [Compound 1009, ethyl 2-[5-({[1-(4-chlorophenyl)cyclohexyl]methyl}carbamoyl)imidazo[1,2-a]pyridin-2-yl]-3-cyclopropylpropanoate] | > 5.70 | –
O=C(NCC1(c2ccc(Cl)cc2)CCCCC1)c1cccc2nc(C(CC3CC3)C(=O)O)cn12 (centres unmarked) [Compound 1010, 2-[5-({[1-(4-chlorophenyl)cyclohexyl]methyl}carbamoyl)imidazo[1,2-a]pyridin-2-yl]-3-cyclopropylpropanoic acid] | > 5.70 | –
Cc1ccc(C2(CNC(=O)c3cccc4nc(CC(Cc5ccccc5)C(=O)O)cn34)CCCCC2)cc1 (centres unmarked) [Compound 1011, 2-benzyl-3-[5-({[1-(4-methylphenyl)cyclohexyl]methyl}carbamoyl)imidazo[1,2-a]pyridin-2-yl] propanoic acid] | > 5.70 | –
O=C(NCC1(c2ccc(F)cc2)CCCCC1)c1cccc2nc(CC(Cc3ccccc3)C(=O)O)cn12 (centres unmarked) [Compound 1012, 2-benzyl-3-[5-({[1-(4-fluorophenyl)cyclohexyl]methyl}carbamoyl)imidazo[1,2-a]pyridin-2-yl]propanoic acid] | > 5.70 | –
O=C(NCC1(c2ccc(Cl)cc2)CCCCC1)c1cccc2nc(CC(Cc3ccccc3)C(=O)O)cn12 (centres unmarked) [Compound 1013, 2-benzyl-3-[5-({[1-(4-chlorophenyl)cyclohexyl]methyl}carbamoyl)imidazo[1,2-a]pyridin-2-yl] propanoic acid] | > 5.70 | –
COc1ccc(C2(CNC(=O)c3cccc4nc(CC(Cc5ccccc5)C(=O)O)cn34)CCCCC2)cc1 (centres unmarked) [Compound 1014, 2-benzyl-3-[5-({[1-(4-methoxyphenyl)cyclohexyl]methyl}carbamoyl)imidazo[1,2-a]pyridin-2-yl]propanoic acid] | > 5.70 | –
CC1(C)C2CC[C@@H](CNC(=O)c3cccc4nc(C(F)(F)F)cn34)C1C2 (stereo partly drawn) [Compound 1016, N-{[(2R)-6,6-dimethylbicyclo [3.1.1]hept-2-yl]methyl}-2-(trifluoromethyl) imidazo [1,2-a]pyridine-5-carboxamide] | > 5.70 | –
O=C(NCC1(c2ccc(C(F)(F)F)cc2)CCCCC1)c1cccc2nc(C(F)(F)F)cn12 [Compound 1018, 2-(trifluoromethyl)-N-({1-[4-(trifluoromethyl)phenyl]cyclohexyl}methyl) imidazo [1,2-a]pyridine-5-carboxamide] | – | > 5.70
O=C(NCC1(c2ccc(Cl)cc2)CCCCC1)c1cccc2nc(C(F)(F)F)cn12 [Compound 1020, N-{[1-(4-chlorophenyl)cyclohexyl]methyl}-2-(trifluoromethyl) imidazo [1,2-a]pyridine-5-carboxamide] | – | > 5.70
CC(C)CC(CNC(=O)c1cccc2nc(C(F)(F)F)cn12)c1ccc(Cl)cc1 (centres unmarked) [Compound 1021, N-[2-(4-chlorophenyl)-4-methylpentyl]-2-(trifluoromethyl) imidazo [1,2-a]pyridine-5-carboxamide] | – | > 5.70
CC(C)CC(CNC(=O)c1cccc2nc(C(F)(F)F)cn12)c1ccc(C(F)(F)F)cc1 (centres unmarked) [Compound 1025, N-{4-methyl-2-[4-(trifluoromethyl)phenyl]pentyl}-2-(trifluoromethyl) imidazo [1,2-a]pyridine-5-carboxamide] | – | > 5.70
COc1ccc(C2(CNC(=O)c3cccc4nc(C(F)(F)F)cn34)CCCCC2)cc1 [Compound 1026, N-{[1-(4-methoxyphenyl)cyclohexyl]methyl}-2-(trifluoromethyl) imidazo [1,2-a]pyridine-5-carboxamide] | – | > 5.70
CC(=O)c1cn2c(C(=O)NCC(CC(C)C)c3ccc(Cl)cc3)cccc2n1 (centres unmarked) [Compound 1032, 2-acetyl-N-[2-(4-chlorophenyl)-4-methylpentyl] imidazo[1,2-a] pyridine-5-carboxamlde] | – | > 5.70
